Source: ChEMBL document CHEMBL1201862, “PubChem BioAssay data set” (2004)
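Following 48 hours of exposure in 96-well plates, responses at five concentrations were used to interpolate endpoints linearly. GI50 = concentration required for 50% inhibition of growth.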 Calls of active or inactive are those of the source. Cut-off read from the data, not from the text of the source: active = GI50 up to about 1.1 µM and inactive = higher.

Tests used:
Experiment in all cases: NCI anticancer screen, dose series, 48 h
HOP-18 = test system: HOP-18
NCI-H460 = test system: NCI-H460
SK-MEL-2 = test system: SK-MEL-2
786-0 = test system: 786-0
OVCAR-8 = test system: OVCAR-8
SF-268 = test system: SF-268
LXFL 529 = test system: LXFL 529
SW-620 = test system: SW-620
SK-MEL-28 = test system: SK-MEL-28
DMS-114 = test system: DMS-114
NCI-H226 = test system: NCI-H226
SR = test system: SR
ACHN = test system: ACHN
RXF 393 = test system: RXF 393
HOP-62 = test system: HOP-62
SN12C = test system: SN12C
SNB-78 = test system: SNB-78
EKVX = test system: EKVX
HCT-116 = test system: HCT-116
KM12 = test system: KM12
HT-29 = test system: HT-29
SK-MEL-5 = test system: SK-MEL-5
DMS-273 = test system: DMS-273
U-251 = test system: U-251
HCC 2998 = test system: HCC 2998
Malme-3M = test system: Malme-3M
SF-539 = test system: SF-539
M14 = test system: M14
SF-295 = test system: SF-295
UO-31 = test system: UO-31
OVCAR-4 = test system: OVCAR-4
A549 = test system: A549
MOLT-4 = test system: MOLT-4
UACC-257 = test system: UACC-257
SK-OV-3 = test system: SK-OV-3
HL-60 = test system: HL-60
SNB-19 = test system: SNB-19
DLD-1 = test system: DLD-1
IGROV-1 = test system: IGROV-1
OVCAR-3 = test system: OVCAR-3
HCT-15 = test system: HCT-15
KM-20L2 = test system: KM-20L2
SNB-75 = test system: SNB-75
TK-10 = test system: TK-10
UACC-62 = test system: UACC-62
RXF 631 = test system: RXF 631
NCI-H23 = test system: NCI-H23
COLO 205 = test system: COLO 205
A498 = test system: A498
CCRF-CEM = test system: CCRF-CEM
M19-MEL = test system: M19-MEL
CAKI-1 = test system: CAKI-1
HOP-92 = test system: HOP-92
OVCAR-5 = test system: OVCAR-5
NCI-H522 = test system: NCI-H522
XF498 = test system: XF498
K562 = test system: K562
RPMI-8226 = test system: RPMI-8226
LOX IMVI = test system: LOX IMVI

`COC(=O)C1=NC(=S)NC(c2ccccc2)C1c1nc2ccccc2s1` (stereo not drawn) was tested, and the GI50 (HOP-18) was > 100 µM (inactive), the GI50 (NCI-H460) was > 100 µM (inactive) and the GI50 (SK-MEL-2) was > 100 µM (inactive). The GI50 (786-0) was > 100 µM (inactive), the GI50 (OVCAR-8) was > 100 µM (inactive) and the GI50 (SF-268) was > 100 µM (inactive). For the same molecule, the GI50 (LXFL 529) was > 100 µM (inactive), the GI50 (SW-620) was > 100 µM (inactive) and the GI50 (SK-MEL-28) was > 100 µM (inactive). For the same molecule, the GI50 (DMS-114) was > 100 µM (inactive), the GI50 (NCI-H226) was > 100 µM (inactive) and the GI50 (SR) was > 100 µM (inactive). For the same molecule, the GI50 (ACHN) was > 100 µM (inactive), the GI50 (RXF 393) was > 100 µM (inactive) and the GI50 (HOP-62) was > 100 µM (inactive). For the same molecule, the GI50 (SN12C) was > 100 µM (inactive), the GI50 (SNB-78) was > 100 µM (inactive) and the GI50 (EKVX) was > 100 µM (inactive). The GI50 (HCT-116) was > 100 µM (inactive), the GI50 (KM12) was > 100 µM (inactive) and the GI50 (HT-29) was > 100 µM (inactive). The GI50 (SK-MEL-5) was > 100 µM (inactive), the GI50 (DMS-273) was > 100 µM (inactive) and the GI50 (U-251) was > 100 µM (inactive). The GI50 (HCC 2998) was > 100 µM (inactive), the GI50 (Malme-3M) was > 100 µM (inactive) and the GI50 (SF-539) was 67.8 µM (inactive). For the same molecule, the GI50 (M14) was > 100 µM (inactive), the GI50 (SF-295) was > 100 µM (inactive) and the GI50 (UO-31) was > 100 µM (inactive). The GI50 (OVCAR-4) was > 100 µM (inactive), the GI50 (A549) was > 100 µM (inactive) and the GI50 (MOLT-4) was > 100 µM (inactive). The GI50 (UACC-257) was > 100 µM (inactive), the GI50 (SK-OV-3) was > 100 µM (inactive) and the GI50 (HL-60) was 98.2 µM (inactive). The GI50 (SNB-19) was > 100 µM (inactive), the GI50 (DLD-1) was > 100 µM (inactive) and the GI50 (IGROV-1) was > 100 µM (inactive). For the same molecule, the GI50 (OVCAR-3) was > 100 µM (inactive), the GI50 (HCT-15) was over 100 µM and the GI50 (KM-20L2) was > 100 µM (inactive). The GI50 (SNB-75) was 55.3 µM (inactive), the GI50 (TK-10) was > 100 µM (inactive) and the GI50 (UACC-62) was > 100 µM (inactive). For the same molecule, the GI50 (RXF 631) was > 100 µM (inactive), the GI50 (NCI-H23) was > 100 µM (inactive) and the GI50 (COLO 205) was > 100 µM (inactive). For the same molecule, the GI50 (A498) was > 100 µM (inactive), the GI50 (CCRF-CEM) was > 100 µM (inactive) and the GI50 (M19-MEL) was > 100 µM (inactive). For the same molecule, the GI50 (CAKI-1) was > 100 µM (inactive) and the GI50 (HOP-92) was > 100 µM (inactive).

In the case of `COc1ccc2cc3[n+](cc2c1OC)CCc1cc(O)c(O)cc1-3`, the GI50 (NCI-H460) is reported as > 100 µM (inactive), the GI50 (786-0) is reported as > 100 µM (inactive) and the GI50 (OVCAR-8) is reported as > 100 µM (inactive). The GI50 (SF-268) was > 100 µM (inactive), the GI50 (LXFL 529) was > 100 µM (inactive) and the GI50 (SW-620) was > 100 µM (inactive). For the same molecule, the GI50 (DMS-114) was > 100 µM (inactive), the GI50 (OVCAR-5) was > 100 µM (inactive) and the GI50 (NCI-H226) was > 100 µM (inactive). For the same molecule, the GI50 (NCI-H522) was > 100 µM (inactive), the GI50 (RXF 393) was > 100 µM (inactive) and the GI50 (XF498) was > 100 µM (inactive). The GI50 (HOP-62) was > 100 µM (inactive), the GI50 (SN12C) was > 100 µM (inactive) and the GI50 (SNB-78) was > 100 µM (inactive). For the same molecule, the GI50 (EKVX) was > 100 µM (inactive), the GI50 (HCT-116) was > 100 µM (inactive) and the GI50 (KM12) was > 100 µM (inactive). For the same molecule, the GI50 (HT-29) was > 100 µM (inactive), the GI50 (K562) was > 100 µM (inactive) and the GI50 (SK-MEL-5) was > 100 µM (inactive). The GI50 (DMS-273) was > 100 µM (inactive), the GI50 (U-251) was > 100 µM (inactive) and the GI50 (Malme-3M) was > 100 µM (inactive). The GI50 (RPMI-8226) was > 100 µM (inactive), the GI50 (SF-539) was > 100 µM (inactive) and the GI50 (M14) was > 100 µM (inactive). The GI50 (SF-295) was > 100 µM (inactive), the GI50 (UO-31) was > 100 µM (inactive) and the GI50 (OVCAR-4) was > 100 µM (inactive). For the same molecule, the GI50 (A549) was > 100 µM (inactive), the GI50 (MOLT-4) was > 100 µM (inactive) and the GI50 (UACC-257) was > 100 µM (inactive). The GI50 (SK-OV-3) was > 100 µM (inactive), the GI50 (LOX IMVI) was > 100 µM (inactive) and the GI50 (HL-60) was > 100 µM (inactive). The GI50 (SNB-19) was > 100 µM (inactive), the GI50 (DLD-1) was > 100 µM (inactive) and the GI50 (IGROV-1) was > 100 µM (inactive). The GI50 (OVCAR-3) was > 100 µM (inactive), the GI50 (HCT-15) was over 100 µM and the GI50 (KM-20L2) was > 100 µM (inactive). The GI50 (SNB-75) was > 100 µM (inactive), the GI50 (TK-10) was > 100 µM (inactive) and the GI50 (UACC-62) was > 100 µM (inactive). The GI50 (RXF 631) was > 100 µM (inactive), the GI50 (NCI-H23) was > 100 µM (inactive) and the GI50 (COLO 205) was > 100 µM (inactive). The GI50 (A498) was > 100 µM (inactive), the GI50 (CCRF-CEM) was > 100 µM (inactive) and the GI50 (M19-MEL) was > 100 µM (inactive). For the same molecule, the GI50 (CAKI-1) was > 100 µM (inactive) and the GI50 (HOP-92) was > 100 µM (inactive).

In the case of `O=C(CC1(O)C(=O)Nc2ccc(Br)cc21)c1ccc(Cl)cc1` (stereo not drawn), the GI50 (HOP-18) is reported as 72.4 µM (inactive), the GI50 (NCI-H460) is reported as > 100 µM (inactive) and the GI50 (SK-MEL-2) is reported as > 100 µM (inactive). For the same molecule, the GI50 (786-0) was 75.7 µM (inactive), the GI50 (OVCAR-8) was 52 µM (inactive) and the GI50 (SF-268) was > 100 µM (inactive). The GI50 (LXFL 529) was > 100 µM (inactive), the GI50 (SW-620) was 43.2 µM (inactive) and the GI50 (SK-MEL-28) was > 100 µM (inactive). The GI50 (OVCAR-5) was > 100 µM (inactive), the GI50 (NCI-H226) was > 100 µM (inactive) and the GI50 (NCI-H522) was > 100 µM (inactive). The GI50 (ACHN) was > 100 µM (inactive), the GI50 (RXF 393) was 52.2 µM (inactive) and the GI50 (HOP-62) was 68.9 µM (inactive). For the same molecule, the GI50 (SN12C) was 77.8 µM (inactive), the GI50 (SNB-78) was 83.8 µM (inactive) and the GI50 (EKVX) was > 100 µM (inactive). The GI50 (HCT-116) was 44.4 µM (inactive), the GI50 (KM12) was 47.4 µM (inactive) and the GI50 (HT-29) was 42 µM (inactive). For the same molecule, the GI50 (K562) was 58.7 µM (inactive), the GI50 (SK-MEL-5) was > 100 µM (inactive) and the GI50 (U-251) was 27.6 µM (inactive). The GI50 (Malme-3M) was > 100 µM (inactive), the GI50 (RPMI-8226) was 42.3 µM (inactive) and the GI50 (SF-539) was 50.7 µM (inactive). The GI50 (M14) was 83.2 µM (inactive), the GI50 (SF-295) was > 100 µM (inactive) and the GI50 (UO-31) was > 100 µM (inactive). The GI50 (OVCAR-4) was 69.7 µM (inactive), the GI50 (A549) was > 100 µM (inactive) and the GI50 (MOLT-4) was 43.3 µM (inactive). The GI50 (UACC-257) was 30.2 µM (inactive), the GI50 (SK-OV-3) was > 100 µM (inactive) and the GI50 (LOX IMVI) was 18.2 µM (inactive). For the same molecule, the GI50 (HL-60) was > 10 µM (inactive), the GI50 (SNB-19) was 84.9 µM (inactive) and the GI50 (DLD-1) was 70.8 µM (inactive). For the same molecule, the GI50 (IGROV-1) was > 100 µM (inactive), the GI50 (OVCAR-3) was > 100 µM (inactive) and the GI50 (HCT-15) was over 100 µM. The GI50 (KM-20L2) was > 100 µM (inactive), the GI50 (SNB-75) was 16.3 µM (inactive) and the GI50 (TK-10) was > 100 µM (inactive). The GI50 (UACC-62) was 36.2 µM (inactive), the GI50 (RXF 631) was 31.5 µM (inactive) and the GI50 (NCI-H23) was 67.6 µM (inactive). The GI50 (COLO 205) was > 100 µM (inactive), the GI50 (A498) was > 100 µM (inactive) and the GI50 (CCRF-CEM) was 38.9 µM (inactive). The GI50 (HOP-92) was 35.2 µM (inactive).
